The text below walks through data of PubChem BioAssay (NCI).

Several values for one entry are separate records, joined by “and”; a condition that tells them apart may be missing. Equal values may be shown once.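 Interpolation was linear, between the two tested concentrations surrounding the appropriate level; five concentrations were tested over 48 hours in 96-well plates. GI50: concentration for 50% inhibition of growth. The concentration for full growth arrest is given as TGI.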

Test systems include BT-549 breast; OVCAR-8 ovarian; OVCAR-3 ovarian; HCC-2998 colon; SNB-75 CNS; EKVX NSCLC; MDA-MB-231 breast; HCT-116 colon.
Common to all, as to test: DTP human tumour cell line panel, 48 h

What is called GI50 is the concentration at which growth is held to half of that of the control. As usually defined, the TGI is the concentration giving total growth inhibition. A high value points to less potent growth arrest. In the case of `Oc1[nH]c2c(Br)cccc2c1C1=Nc2ccccc2/C1=N/OCCN1CCCC1`, the GI50 was 1.24 µM in the experiment on BT-549 breast; 0.792 µM in the experiment with OVCAR-8 ovarian; 1.48 µM with OVCAR-3 ovarian; 1 µM in the experiment on HCC-2998 colon; 1.14 µM with SNB-75 CNS; 1.31 µM and 2.09 µM in the experiment on EKVX NSCLC. Also, the GI50 was 1.31 µM and 1.21 µM with MDA-MB-231 breast; 0.448 µM with HCT-116 colon. The concentration for total growth inhibition (TGI) in the experiment on BT-549 breast is 2.85 µM; in the experiment with OVCAR-3 ovarian it was 3.45 µM; in the experiment with HCC-2998 colon it was 6.18 µM; with SNB-75 CNS, 3.64 µM; in the experiment on EKVX NSCLC, more than 100 µM; in the experiment on MDA-MB-231 breast it was 4.95 µM and 7.97 µM. In addition, the total growth inhibition concentration (TGI) with HCT-116 colon was 1.78 µM.
Regarding `CNC(=O)CC1NC(=O)c2csc(n2)-c2ccc(-c3nc(C4=NC(C(=O)N5CCCC5C(N)=O)CO4)cs3)nc2-c2csc(n2)-c2csc(n2)C(C(C)C)NC(=O)CNC(=O)c2csc(n2)C(C(C)C)NC(=O)c2nc1sc2C` (stereo not given), the GI50 in the experiment on BT-549 breast, with OVCAR-8 ovarian, with SNB-75 CNS, with EKVX NSCLC, in the experiment on MDA-MB-231 breast and in the experiment on HCT-116 colon was more than 25 µM each time. Further, the TGI with BT-549 breast is 4.5 µM and > 25 µM; in the experiment with OVCAR-8 ovarian, more than 25 µM; in the experiment on OVCAR-3 ovarian it was 0.937 µM; in the experiment on HCC-2998 colon it was 2.31 µM; with EKVX NSCLC, more than 25 µM; in the experiment with MDA-MB-231 breast it was 2.73 µM and > 25 µM. The compound further returned a total growth inhibition concentration (TGI) in the experiment with HCT-116 colon of more than 25 µM.
In the case of `CCC[CH2][Sn]([CH2]CCC)([CH2]CCC)[O]C(=O)c1ccc(Cl)cc1Cl`, the GI50 in the experiment with BT-549 breast was 0.119 µM; with OVCAR-8 ovarian, 0.183 µM; in the experiment on OVCAR-3 ovarian, 0.13 µM; in the experiment on HCC-2998 colon, 0.168 µM; with SNB-75 CNS it was 0.117 µM; with EKVX NSCLC, 0.099 µM. Further, the GI50 in the experiment with MDA-MB-231 breast was 0.129 µM; in the experiment with HCT-116 colon, 0.127 µM. Also, the concentration for total growth inhibition (TGI) in the experiment with BT-549 breast amounted to 0.251 µM; in the experiment with OVCAR-8 ovarian, 0.373 µM; with OVCAR-3 ovarian, 0.259 µM; with HCC-2998 colon it was 0.31 µM; in the experiment on SNB-75 CNS it was 0.248 µM; in the experiment with EKVX NSCLC, 0.273 µM. In addition, the TGI with MDA-MB-231 breast turned out to be 0.326 µM; with HCT-116 colon, 0.262 µM.
Turning to `CN(C)CC1C(=O)O[C@H]2[C@H]1CC/C(COC(=O)c1cc3ccccc3[nH]1)=C\CC[C@@]1(C)O[C@@H]21` (stereo not given in full), the GI50 in the experiment with BT-549 breast was 1.66 µM; in the experiment with OVCAR-8 ovarian it was 2.13 µM; in the experiment with OVCAR-3 ovarian, 0.672 µM; in the experiment on HCC-2998 colon it was 1.78 µM; with SNB-75 CNS, 2.18 µM; with EKVX NSCLC it was 3.16 µM. The GI50 is 2 µM in the experiment on MDA-MB-231 breast and 0.577 µM in the experiment on HCT-116 colon. In addition, the TGI stood at 4.48 µM in the experiment with BT-549 breast; 7.48 µM with OVCAR-8 ovarian; 1.76 µM with OVCAR-3 ovarian; 3.58 µM in the experiment with HCC-2998 colon; 10.4 µM in the experiment on SNB-75 CNS; 12.5 µM with EKVX NSCLC. The TGI is 4.63 µM with MDA-MB-231 breast and 1.57 µM in the experiment on HCT-116 colon.
As to `COc1ccc(C(=O)/C=C/c2ccc3c(c2)OCO3)c(OCc2ccccc2)c1`, the TGI in the experiment with BT-549 breast, in the experiment on OVCAR-8 ovarian, with OVCAR-3 ovarian, in the experiment on HCC-2998 colon, in the experiment on SNB-75 CNS and with EKVX NSCLC was more than 100 µM in each case. In addition, the TGI with MDA-MB-231 breast and in the experiment with HCT-116 colon was more than 100 µM throughout.
For `COc1cc(/C=C/C(=O)c2c(C)nc3ccccc3c2/C=C/c2ccc(C)cc2)cc(OC)c1OC`, the GI50 was 2.06 µM in the experiment with BT-549 breast; 3.25 µM with OVCAR-8 ovarian; 1.76 µM in the experiment on OVCAR-3 ovarian; 1.73 µM in the experiment on HCC-2998 colon; 1.47 µM in the experiment on SNB-75 CNS; 2.32 µM in the experiment on EKVX NSCLC. The GI50 was 2.14 µM in the experiment on MDA-MB-231 breast and 1.36 µM in the experiment with HCT-116 colon. The TGI is 4.57 µM in the experiment with BT-549 breast; more than 100 µM with OVCAR-8 ovarian; 3.23 µM in the experiment with OVCAR-3 ovarian; 3.26 µM with HCC-2998 colon; 4.82 µM in the experiment with SNB-75 CNS; 6.32 µM with EKVX NSCLC. In addition, the total growth inhibition concentration (TGI) was 5.23 µM in the experiment with MDA-MB-231 breast and 2.82 µM in the experiment on HCT-116 colon.
Take `COc1cc2c(cc1OCCCCCOc1ccc(-n3c(C)nc4ccccc4c3=O)cc1)N=C[C@@H]1CCCN1C2=O`: the GI50 was 0.137 µM in the experiment with BT-549 breast; 0.363 µM in the experiment on OVCAR-8 ovarian; 0.346 µM in the experiment with OVCAR-3 ovarian; 0.256 µM with HCC-2998 colon; 0.408 µM with SNB-75 CNS; 0.778 µM in the experiment on EKVX NSCLC. Moreover, the concentration for 50% growth inhibition (GI50) with MDA-MB-231 breast was 0.188 µM; in the experiment on HCT-116 colon, 0.167 µM. In addition, the TGI in the experiment on BT-549 breast came out at 0.34 µM; in the experiment with OVCAR-8 ovarian, 3 µM; in the experiment with OVCAR-3 ovarian, 15.5 µM; with HCC-2998 colon it was 0.685 µM; in the experiment with SNB-75 CNS, 3.43 µM; with EKVX NSCLC, 4.77 µM. In addition, the figures for the TGI in the experiment with MDA-MB-231 breast and in the experiment on HCT-116 colon were 0.636 µM and 0.327 µM, respectively.
